Earlier results as cited in patent US20150290158A1, “X-RAY CONTRAST MEDIA COMPOSITIONS AND METHODS OF USING THE SAME TO TREAT, REDUCE OR DELAY THE ONSET OF CNS INFLAMMATION AND INFLAMMATION ASSOCIATED CONDITIONS” (priority 2012, published 2015).
Peptide text beside a SMILES is read from it.

Columns and labels:
TNF-alpha = details: in vitro
mast cell degranulation = details: in vitro, immunological and non-immunological stimuli
[1] = test system: allergen induced nasal obstruction; details: used as a nasal spray, in vivo
[2] = molecular target: angiotensin converting enzyme (ACE) (Homo sapiens, UniProt P12821); details: compared with commercial iopamidol (contains chelator); from Lasser et al., 1990
Chain of angiotensin converting enzyme (ACE) (P12821 30-1306, species assumed): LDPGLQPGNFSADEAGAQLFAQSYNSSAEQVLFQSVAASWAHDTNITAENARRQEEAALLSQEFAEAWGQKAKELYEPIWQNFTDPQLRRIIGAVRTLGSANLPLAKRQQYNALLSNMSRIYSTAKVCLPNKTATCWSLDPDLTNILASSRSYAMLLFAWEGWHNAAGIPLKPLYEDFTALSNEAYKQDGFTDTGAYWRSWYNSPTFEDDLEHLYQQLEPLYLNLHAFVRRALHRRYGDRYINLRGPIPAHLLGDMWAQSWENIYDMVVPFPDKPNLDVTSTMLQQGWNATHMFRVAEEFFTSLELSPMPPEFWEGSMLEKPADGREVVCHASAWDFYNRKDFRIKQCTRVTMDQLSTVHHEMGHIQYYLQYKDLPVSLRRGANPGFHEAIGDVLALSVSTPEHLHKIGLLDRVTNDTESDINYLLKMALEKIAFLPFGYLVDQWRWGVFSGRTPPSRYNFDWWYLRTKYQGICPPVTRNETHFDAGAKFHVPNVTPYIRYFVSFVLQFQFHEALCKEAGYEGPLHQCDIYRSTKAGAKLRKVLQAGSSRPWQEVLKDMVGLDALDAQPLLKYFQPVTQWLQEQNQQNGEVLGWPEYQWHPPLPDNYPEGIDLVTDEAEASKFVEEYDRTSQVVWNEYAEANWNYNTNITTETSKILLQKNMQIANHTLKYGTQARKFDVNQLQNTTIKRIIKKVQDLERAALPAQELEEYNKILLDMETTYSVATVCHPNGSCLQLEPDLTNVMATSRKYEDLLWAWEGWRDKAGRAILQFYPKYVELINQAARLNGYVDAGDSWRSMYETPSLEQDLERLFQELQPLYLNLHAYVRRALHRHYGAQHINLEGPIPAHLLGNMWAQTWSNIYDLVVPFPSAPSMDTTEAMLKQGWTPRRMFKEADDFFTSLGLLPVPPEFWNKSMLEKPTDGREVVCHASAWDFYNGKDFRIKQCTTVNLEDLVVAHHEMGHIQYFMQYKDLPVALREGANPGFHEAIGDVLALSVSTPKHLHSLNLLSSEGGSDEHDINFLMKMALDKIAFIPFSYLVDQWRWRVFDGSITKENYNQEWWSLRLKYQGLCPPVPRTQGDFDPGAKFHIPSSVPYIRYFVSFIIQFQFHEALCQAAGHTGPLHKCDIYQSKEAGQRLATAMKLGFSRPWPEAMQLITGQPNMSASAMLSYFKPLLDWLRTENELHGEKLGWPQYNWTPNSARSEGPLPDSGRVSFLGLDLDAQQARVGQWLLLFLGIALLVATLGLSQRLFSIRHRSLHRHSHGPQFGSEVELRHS

## CCCc1c2oc(C(=O)[O-])cc(=O)c2cc2c(=O)cc(C(=O)[O-])n(CC)c12.[Na+].[Na+] [nedocrimal sodium]
TNF-alpha
  inhibition of TNF-alpha: inhibited TNF-alpha in vitro

## O=C(O)c1cc(=O)c2c(OCC(O)COc3cccc4oc(C(=O)O)cc(=O)c34)cccc2o1 [Sodium cromoglycate]
TNF-alpha
  inhibition of TNF-alpha: inhibited TNF-alpha in vitro

## CC(=O)N[C@@H](CC(=O)[O-])C(=O)N[C@@H](CCC(=O)[O-])C(=O)O.[Mg+2] [magnesium salt of n-acetyl aspartyl glutamic acid] (Ac-Asp-Glu-OH)
Mast cell degranulation
  mast cell degranulation: inhibit mast cell degranulation
[1]
  allergen induced nasal obstruction: reduce allergen induced nasal obstruction

## C[C@H](O)C(=O)Nc1c(I)c(C(=O)NC(CO)CO)c(I)c(C(=O)NC(CO)CO)c1I [purified iopamidol, iopamidol]
[2]
  inhibition of ACE: diminishes the inhibition ACE significantly
